Assay results reported in the NIST ThermoML archive (doi:10.1016/j.tca.2018.11.018).

Test: xn = mol fraction of the nth substance listed
Settings: 100 kPa, Liquid; for viscosity: Falling or rolling sphere viscometry; for mass density: Vibrating tube method

CCCC[N+](CC)(CC)CC.[Br-] [butyltriethyl ammonium bromide] + O
Settings	mass density [kg/m3]	viscosity [mPa·s]
298.15 K, x1 = 0.02	1030.2	1.581
298.15 K, x1 = 0.04	1057.3	2.599
298.15 K, x1 = 0.06	1078.8	4.044
298.15 K, x1 = 0.08	1095.3	5.87
298.15 K, x1 = 0.105	1111	10.02
298.15 K, x1 = 0.13	1122.8	14.11
298.15 K, x1 = 0.16	1133.5	21.36
298.15 K, x1 = 0.189	1140.9	30.66
298.15 K, x1 = 0.22	1147.3	43.63
298.15 K, x1 = 0.253	1152.5	63.73
303.15 K, x1 = 0.02	1028.2	1.381
303.15 K, x1 = 0.04	1054.7	2.216
303.15 K, x1 = 0.06	1075.6	3.393
303.15 K, x1 = 0.08	1091.9	4.835
303.15 K, x1 = 0.105	1107.4	8.222
303.15 K, x1 = 0.13	1119.1	11.45
303.15 K, x1 = 0.16	1129.8	16.85
303.15 K, x1 = 0.189	1137.3	23.62
303.15 K, x1 = 0.22	1143.7	33
303.15 K, x1 = 0.253	1148.9	47.05
308.15 K, x1 = 0.02	1026	1.223
308.15 K, x1 = 0.04	1051.9	1.921
308.15 K, x1 = 0.06	1072.5	2.885
308.15 K, x1 = 0.08	1088.4	4.054
308.15 K, x1 = 0.105	1103.8	6.767
308.15 K, x1 = 0.13	1115.4	9.328
308.15 K, x1 = 0.16	1126.1	13.49
308.15 K, x1 = 0.189	1133.6	18.55
308.15 K, x1 = 0.22	1140.1	25.39
308.15 K, x1 = 0.253	1145.4	35.52
313.15 K, x1 = 0.02	1023.6	1.091
313.15 K, x1 = 0.04	1049.1	1.682
313.15 K, x1 = 0.06	1069.2	2.488
313.15 K, x1 = 0.08	1084.9	3.441
313.15 K, x1 = 0.105	1100.2	5.583
313.15 K, x1 = 0.13	1111.7	7.649
313.15 K, x1 = 0.16	1122.4	10.91
313.15 K, x1 = 0.189	1129.9	14.79
313.15 K, x1 = 0.22	1136.5	19.92
313.15 K, x1 = 0.253	1141.9	27.22
318.15 K, x1 = 0.02	1021	0.981
318.15 K, x1 = 0.04	1046.1	1.485
318.15 K, x1 = 0.06	1065.9	2.164
318.15 K, x1 = 0.08	1081.4	2.942
318.15 K, x1 = 0.105	1096.5	4.648
318.15 K, x1 = 0.13	1108	6.334
318.15 K, x1 = 0.16	1118.7	8.969
318.15 K, x1 = 0.189	1126.2	12.07
318.15 K, x1 = 0.22	1132.8	15.94
318.15 K, x1 = 0.253	1138.3	21.51
323.15 K, x1 = 0.02	1018.3	0.889
323.15 K, x1 = 0.04	1042.9	1.324
323.15 K, x1 = 0.06	1062	1.906
323.15 K, x1 = 0.08	1077.8	2.567
323.15 K, x1 = 0.105	1092.8	3.92
323.15 K, x1 = 0.13	1104.2	5.293
323.15 K, x1 = 0.16	1115	7.453
323.15 K, x1 = 0.189	1122.5	9.912
323.15 K, x1 = 0.22	1129.2	12.97
323.15 K, x1 = 0.253	1134.7	17.19
328.15 K, x1 = 0.02	1015.8	0.812
328.15 K, x1 = 0.04	1039.9	1.189
328.15 K, x1 = 0.06	1059.1	1.69
328.15 K, x1 = 0.08	1074.2	2.252
328.15 K, x1 = 0.105	1089.1	3.358
328.15 K, x1 = 0.13	1100.5	4.483
328.15 K, x1 = 0.16	1111.2	6.266
328.15 K, x1 = 0.189	1118.8	8.29
328.15 K, x1 = 0.22	1125.6	10.76
328.15 K, x1 = 0.253	1131.2	14.11
333.15 K, x1 = 0.02	1013.01	0.75
333.15 K, x1 = 0.04	1036.64	1.077
333.15 K, x1 = 0.06	1055.6	1.514
333.15 K, x1 = 0.08	1070.54	1.996
333.15 K, x1 = 0.105	1085.3	2.937
333.15 K, x1 = 0.13	1096.66	3.847
333.15 K, x1 = 0.16	1107.44	5.319
333.15 K, x1 = 0.189	1115.11	7.032
333.15 K, x1 = 0.22	1121.89	9.062
333.15 K, x1 = 0.253	1127.56	11.8
338.15 K, x1 = 0.02	1010	0.7
338.15 K, x1 = 0.04	1033.3	0.999
338.15 K, x1 = 0.06	1052	1.363
338.15 K, x1 = 0.08	1066.8	1.781
338.15 K, x1 = 0.105	1081.5	2.425
338.15 K, x1 = 0.13	1092.8	3.339
338.15 K, x1 = 0.16	1103.7	4.555
338.15 K, x1 = 0.189	1111.4	5.982
338.15 K, x1 = 0.22	1118.2	7.687
338.15 K, x1 = 0.253	1124	9.932
343.15 K, x1 = 0.02	1006.6	0.655
343.15 K, x1 = 0.04	1029.5	0.922
343.15 K, x1 = 0.06	1048.4	1.233
343.15 K, x1 = 0.08	1063.1	1.601
343.15 K, x1 = 0.105	1077.7	2.156
343.15 K, x1 = 0.13	1089	2.959
343.15 K, x1 = 0.16	1099.8	3.974
343.15 K, x1 = 0.189	1107.6	5.163
343.15 K, x1 = 0.22	1114.6	6.602
343.15 K, x1 = 0.253	1120.3	8.504
348.15 K, x1 = 0.02	1003.4	0.608
348.15 K, x1 = 0.04	1026.5	0.876
348.15 K, x1 = 0.06	1044.7	1.124
348.15 K, x1 = 0.08	1059.3	1.446
348.15 K, x1 = 0.105	1073.8	1.931
348.15 K, x1 = 0.13	1085.1	2.658
348.15 K, x1 = 0.16	1096	3.489
348.15 K, x1 = 0.189	1103.8	4.485
348.15 K, x1 = 0.22	1110.8	5.702
348.15 K, x1 = 0.253	1116.7	7.325
